From patent US11524966B1 (Valo Early Discovery, Inc., priority 2017, dated 2022) come the findings set out here.

The assay deals with T1, USP28 (His-tagged USP28-FL-mammalian) (Homo sapiens, UniProt Q96RU2).
T1 construct: Expression of USP28 (1-1077)-TEV-6*His (pTT5 vector); made in house; host or cells: Expi293f cells (pTT5 vector)
T1 sequence (Q96RU2 1-1077): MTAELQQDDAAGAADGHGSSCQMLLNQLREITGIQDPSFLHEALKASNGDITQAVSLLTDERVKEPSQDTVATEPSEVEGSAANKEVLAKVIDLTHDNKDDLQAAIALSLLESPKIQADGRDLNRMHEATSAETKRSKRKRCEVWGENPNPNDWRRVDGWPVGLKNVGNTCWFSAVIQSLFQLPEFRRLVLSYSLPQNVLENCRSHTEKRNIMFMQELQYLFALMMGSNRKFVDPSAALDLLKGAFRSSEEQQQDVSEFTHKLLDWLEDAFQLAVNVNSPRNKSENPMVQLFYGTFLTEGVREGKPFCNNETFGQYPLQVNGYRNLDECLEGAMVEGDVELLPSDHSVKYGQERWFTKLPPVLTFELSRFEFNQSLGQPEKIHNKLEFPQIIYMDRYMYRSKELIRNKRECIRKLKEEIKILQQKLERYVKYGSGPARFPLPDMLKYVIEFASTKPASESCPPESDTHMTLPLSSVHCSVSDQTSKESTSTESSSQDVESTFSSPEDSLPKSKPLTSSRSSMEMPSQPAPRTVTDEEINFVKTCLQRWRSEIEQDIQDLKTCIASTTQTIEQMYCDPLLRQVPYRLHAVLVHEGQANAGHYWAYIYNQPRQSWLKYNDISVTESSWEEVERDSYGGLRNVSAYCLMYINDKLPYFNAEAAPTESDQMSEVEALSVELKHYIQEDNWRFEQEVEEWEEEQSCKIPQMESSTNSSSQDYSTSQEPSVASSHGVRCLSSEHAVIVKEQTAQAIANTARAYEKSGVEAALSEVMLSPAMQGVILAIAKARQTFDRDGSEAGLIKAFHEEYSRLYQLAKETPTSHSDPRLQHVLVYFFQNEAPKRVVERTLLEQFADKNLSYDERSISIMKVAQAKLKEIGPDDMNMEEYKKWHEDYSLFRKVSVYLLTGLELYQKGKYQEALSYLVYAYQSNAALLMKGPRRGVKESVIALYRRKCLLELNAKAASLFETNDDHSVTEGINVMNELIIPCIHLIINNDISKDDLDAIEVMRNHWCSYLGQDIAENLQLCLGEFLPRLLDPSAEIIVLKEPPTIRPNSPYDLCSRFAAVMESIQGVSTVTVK
The assay is described as follows: Ubiquitin-Rhodamine 110 Assay for USP28 Activity, Example A-1(a). The format is biochemical. The settings on record: Ubiquitin-Rhodamine 110 assay, Example A-1(a); read-out: USP28 A-1(a) IC50 range. A digest of the protocol: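 IC50 from 4-parameter logistic fit of percent inhibition versus no-enzyme and DMSO controls; compounds 25 μM to 1.3 nM, 3-fold. Ub-Rh110 cleavage (25 nM, below Km) by […] mammalian-expressed USP28-FL-His ran 45 min at room temperature, stopped with 10 mM citric acid, read ex 485/em 535.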

With `Cc1ccc2c(N)c(C(=O)N[C@H]3CCc4nc(N5CCNCC5)ccc4C3)sc2n1` (single isomer, unassigned) [Example 23-7], the IC50 was in the range of 1 to 50 nM.

Regarding `Cc1ccc2c(N)c(C(=O)N[C@@H]3CCc4nc(N5CCNCC5)ccc4C3)sc2n1` (single isomer, unassigned) [Example 23-8], the IC50 lay in the range of 50 to 200 nM. The figure for `Cc1ccc2c(N)c(C(=O)N[C@H]3CCc4nc(N5CCN[C@@H](C)C5)ccc4C3)sc2n1` (single isomer, unassigned) [Example 23-15] is 1 to 50 nM; for `Cc1ccc2c(N)c(C(=O)N[C@H]3CCc4nc(N5CCN[C@H](C)C5)ccc4C3)sc2n1` (single isomer, unassigned) [Example 23-16] it is 1 to 50 nM; for `COC[C@@H]1CN(c2ccc3c(n2)CC[C@H](NC(=O)c2sc4nc(C)ccc4c2N)C3)C[C@@H]1N` (single isomer, unassigned) [Example 24-1] it is 50 to 200 nM. `COC[C@H]1CN(c2ccc3c(n2)CC[C@H](NC(=O)c2sc4nc(C)ccc4c2N)C3)C[C@H]1N` (single isomer, unassigned) [Example 24-2]: the 50% inhibitory concentration (IC50) is 50 to 200 nM. `Cc1ccc2c(N)c(C(=O)N[C@H]3CCc4nc(N5CCNCC5)c(F)cc4C3)sc2n1` (single isomer, unassigned) [Example 30-1]: the IC50 was in the range of 1 to 50 nM. On to `Cc1ccc2c(N)c(C(=O)N[C@@H]3CCc4nc(N5CCNCC5)c(F)cc4C3)sc2n1` (single isomer, unassigned) [Example 30-2], for which the IC50 was 200 to 2000 nM. The value for `Cc1ccc2c(N)c(C(=O)N[C@@H]3Cc4ccc(N5CCNCC5)nc4C4(CC4)C3)sc2n1` (single isomer, unassigned) [Example 31-3, 3-amino-6-methyl-N-[(6′S)-2-(piperazin-1-yl)-6′,7′-dihydro-5′H-spiro[cyclopropane-1,8′-quinoline]-6′-yl]thieno[2,3-b]pyridine-2-carboxamide] was 50 to 200 nM; that for `Cc1ccc2c(N)c(C(=O)N[C@H]3Cc4ccc(N5CCNCC5)nc4C4(CC4)C3)sc2n1` (single isomer, unassigned) [Example 31-4, 3-amino-6-methyl-N-[(6′R)-2′-(piperazin-1-yl)-6′,7′-dihydro-5′H-spiro[cyclopropane-1,8′-quinoline]-6′-yl]thieno[2,3-b]pyridine-2-carboxamide] was 1 to 50 nM. Consider `Cc1ccc2c(N)c(C(=O)N[C@H]3COc4cc(N5C[C@@H]6CCNC[C@@H]65)ccc4C3)sc2n1` (single isomer, unassigned) [Example 33-3], for which the IC50 was 1 to 50 nM. `Cc1ccc2c(N)c(C(=O)N[C@H]3COc4cc(N5C[C@H]6CCNC[C@H]65)ccc4C3)sc2n1` (single isomer, unassigned) [Example 33-4]: the IC50 was in the range of 1 to 50 nM.

Turning to `Cc1cnc2c(N)c(C(=O)N[C@H]3COc4cc(N5CC6CCC(C5)N6)c(F)cc4C3)sc2n1` (single isomer, unassigned) [Example 40], the IC50 lay in the range of 1 to 50 nM. As to `Cc1cnc2c(N)c(C(=O)N[C@@H]3COc4cc(N5CC6CCC(C5)N6)c(F)cc4C3)sc2n1` (single isomer, unassigned) [Example 41], the IC50 lay within 200 to 2000 nM. The figure for `Cc1nc2sc(C(=O)N[C@H]3CCc4nc(N5CCNCC5)ccc4C3)c(N)c2s1` [Example 23-9] is 50 to 200 nM; for `Cc1ccc2c(N)c(C(=O)N[C@H]3CCc4nc(N5CC6CC(C5)N6)ccc4C3)sc2n1` [Example 23-10, 3-amino-N-[(6S)-2-{3,6-diazabicyclo[3.1.1]heptan-3-yl}-5,6,7,8-tetrahydroquinolin-6-yl]-6-methylthieno[2,3-b]pyridine-2-carboxamide] it is 200 to 2000 nM; for `Cc1cnc2c(N)c(C(=O)N[C@H]3CCc4nc(N5CC6CC(C5)N6)ccc4C3)sc2n1` [Example 23-11, 7-amino-N-[(6S)-2-{3,6-diazabicyclo[3.1.1]heptan-3-yl}-5,6,7,8-tetrahydroquinolin-6-yl]-3-methylthieno[2,3-b]pyrazine-6-carboxamide] it is 200 to 2000 nM. As to `Cc1ccc2c(N)c(C(=O)N[C@H]3CCc4nc(N5CC6CCC(C5)N6)ccc4C3)sc2n1` [Example 23-12, 3-amino-N-[(6S)-2-{3,8-diazabicyclo[3.2.1]octan-3-yl}-5,6,7,8-tetrahydroquinolin-6-yl]-6-methylthieno[2,3-b]pyridine-2-carboxamide], the IC50 was in the range of 1 to 50 nM. The value for `Cc1cnc2c(N)c(C(=O)N[C@H]3CCc4nc(N5CC6CCC(C5)N6)ccc4C3)sc2n1` [Example 23-13, 7-amino-N-{(6S)-2-{3,8-diazabicyclo[3.2.1]octan-3-yl}-5,6,7,8-tetrahydroquinolin-6-yl]-3-methylthieno[2,3-b]pyrazine-6-carboxamide] was 1 to 50 nM. Turning to `Cc1cc(C)c2c(N)c(C(=O)N[C@H]3CCc4nc(N5CCNCC5)ccc4C3)sc2n1` [Example 23-14, 3-amino-4,6-dimethyl-N-[(6S)-2-(piperazin-1-yl)-5,6,7,8-tetrahydroquinolin-6-yl]thieno[2,3-b]pyridine-2-carboxamide], the IC50 was 1 to 50 nM. On to `Cc1ccc2c(N)c(C(=O)N[C@H]3CCc4nc(N5CCNCC5)cc(F)c4C3)sc2n1` [Example 23-17, 3-amino-N-[(6S)-4-fluoro-2-(piperazin-1-yl)-5,6,7,8-tetrahydroquinolin-6-yl]-6-methylthieno[2,3-b]pyridine-2-carboxamide], for which the IC50 is 1 to 50 nM. As for `Cc1ccc2c(N)c(C(=O)N[C@H]3CCc4nc(N5CC6CCC(C5)N6)cc(F)c4C3)sc2n1` [Example 23-18, N-((6S)-2-(3,8-diazabicyclo[3.2.1]octan-3-yl)-4-fluoro-5,6,7,8-tetrahydroquinolin-6-yl)-3-amino-6-methylthieno[2,3-b]pyridine-2-carboxamide], the IC50 is 1 to 50 nM. For the compound `Cc1ccc2c(N)c(C(=O)N[C@H]3CCc4nc(N5C[C@@H](N)[C@H](C(F)F)C5)ccc4C3)sc2n1` [Example 25, 3-Amino-N-[(6S)-2-[(3S,4R)-3-amino-4-(difluoromethyl)pyrrolidin-1-yl]-5,6,7,8-tetrahydroquinolin-6-yl]-6-methylthieno[2,3-b]pyridine-2-carboxamide], the IC50 lay in the range of 50 to 200 nM.

For the compound `Cc1ccc2c(N)c(C(=O)N[C@H]3COc4cc(C5(C#N)CCS(=O)(=O)CC5)ccc4C3)sc2n1` [Example 34, 3-amino-N-[(3R)-7-(4-cyano-1,1-dioxo-1λ6-thian-4-yl)-3,4-dihydro-2H-1-benzopyran-3-yl]-6-methylthieno[2,3-b]pyridine-2-carboxamide], the half-inhibitory concentration (IC50) fell in the range of 1 to 50 nM. For `Cc1ccc2c(N)c(C(=O)N[C@H]3COc4c(F)c(N5CCNCC5)c(F)c(F)c4C3)sc2n1` [Example 35, 3-amino-6-methyl-N-[(3R)-5,6,8-trifluoro-7-(piperazin-1-yl)-3,4-dihydro-2H-1-benzopyran-3-yl]thieno[2,3-b]pyridine-2-carboxamide], the half-maximal inhibitory concentration (IC50) was 1 to 50 nM. On to `CCc1cnc2sc(C(=O)N[C@H]3COc4cc(N5CCNCC5)ccc4C3)c(N)c2n1` [Example 36, (R)-7-amino-2-ethyl-N-(7-(piperazin-1-yl)chroman-3-yl)thieno[2,3-b]pyrazine-6-carboxamide], for which the IC50 fell in the range of 200 to 2000 nM. In the case of `CCc1cnc2sc(C(=O)N[C@@H]3COc4cc(N5CCNCC5)ccc4C3)c(N)c2n1` [Example 37, (S)-7-amino-2-ethyl-N-(7-(piperazin-1-yl)chroman-3-yl)thieno[2,3-b]pyrazine-6-carboxamide], the IC50 was over 2000 nM.

In the case of `O=C(N[C@H]1COc2cc(N3CCNCC3)ccc2C1)c1cnc2c(ccn2C(F)F)c1` [Example 38, (R)-1-(difluoromethyl)-N-(7-(piperazin-1-yl)chroman-3-yl)-1H-pyrrolo[2,3-b]pyridine-5-carboxamide], the half-inhibitory concentration (IC50) was in the range of 200 to 2000 nM.

On to `O=C(N[C@@H]1COc2cc(N3CCNCC3)ccc2C1)c1cnc2c(ccn2C(F)F)c1` [Example 39, (S)-1-(difluoromethyl)-N-(7-(piperazin-1-yl)chroman-3-yl)-1H-pyrrolo[2,3-b]pyridine-5-carboxamide], for which the IC50 was over 2000 nM.
